In US6046219A, “Method for the treatment of conditions mediated by collagen formation together with cell proliferation by application of inhibitors of protein hydroxylation” (Cornell Research Foundation, Inc., priority 1997, dated 2000):
Entries after “also recorded” stand apart in the source; their conditions may differ.

Assays:
[1] = system: deoxyhypusyl hydroxylase activity in human B-lymphocytes; assay: Cellular deoxyhypusyl hydroxylase in human B-lymphocytes; format: cell-based; conditions: FIG. 3a
Experimental: In FIG. 3a, the effect on the human enzyme was determined by measuring in proliferating cultured B-lymphocytes the covalent incorporation of tritiated spermidine-derived label into cellular protein, after standard hydrolysis, chromatographic separation of amino acids, and expression of the results relative to uninhibited controls. In FIG. 3b, a standard chromatographic elution profile is shown as obtained from cultured human smooth muscle cells ("SMC"), grown out of coronary atherosclerotic lesions and metabolically labeled in the absence and presence of L-mimosine. […]
The cellular conversion of the precursor deoxyhypusine to the hydroxylated hypusine in cells was examined, after preincubation with the inhibitor for 60 minutes, by labeling the human cells with ^3 H-spermidine (5 μCi/ml) in 25 cm^2 flasks (1×10^6 cells/flask) for 24 hours prior to cell lysis, precipitation with 10% TCA containing 1 mM each of putrescine, spermidine, and spermine, and hydrolysis in 6 N HCl at 110° C. for 16 hours. The hydrolysate was analyzed for labeled amino acids on an amino acid analyzer by published methods (Park et al., J. Biol. Chem., 257:7217-7222 (1982), which is hereby incorporated by reference). The retention of purified hypusine and deoxyhypusine was determined from standards.

type I procollagen = assay: Type I procollagen secretion by SMC; format: cell-based; conditions: human SMC, FIG. 6b
Experimental: (§1) Type III collagen biosynthesis (FIG. 6a) was assessed by a commercial radioimmunoassay using a monoclonal antibody to the N-terminal propeptide of type III procollagen. Plasminogen activator inhibitor-1 ("PAI-1") activity was measured by a standard enzymatic method. Type I collagen biosynthesis (FIG. 6b) was assessed by routine Western blot using a monoclonal antibody to the C-terminal propeptide of type I procollagen.
(§2) SMC or MRC-5 cells (3-5×10^6 cells/35 mm well), incubated in serum-free DMEM containing 50 μg/ml sodium ascorbate and 20 μg/ml β-aminopropionitrile, are exposed for 24 hours to increasing concentrations of hydroxypyridones. After centrifugation, to clear any cellular debris, these supernatants are used to determine the levels of type I and III procollagens, using commercially available radioimmunoassays (Incstar and Behringwerke, respectively).
(§3) Human SMC (3-5×10^5 cells/35 mm well), grown to confluency and incubated in serum-free DMEM containing 50 μg/ml sodium ascorbate and 20 μg/ml β-aminopropionitrile, were exposed for 24 hours to increasing concentrations of test compounds. […] Type I procollagen biosynthesis also was quantified by Western analysis in the following manner. […] Immunoblots were scanned with a UMAX UC630 flatbed scanner and quantified densitometrically using standard software.

type III procollagen = assay: Type III procollagen secretion by SMC; format: cell-based; conditions: human SMC, FIG. 6a
Experimental: as §1, §2, §3

[2] = system: human SMC from fibroproliferative vascular lesions; assay: Cell proliferation: DNA synthesis (3H-thymidine) in SMC; format: cell-based; conditions: for reversibility of cytostatic effect upon withdrawal: corrected for cell number
Experimental: The effect of the structural hydroxypyridone analog kojic acid is shown for comparison. Serum-stimulated DNA synthesis in SMC was determined by a 4-hour pulse of ^3 H-thymidine given 20 hours after treatment with L-mimosine and kojic acid (filled symbols). Identically treated, but unlabeled cells cultured in parallel, at that time point were washed and returned to fresh culture media without inhibitor for an additional 20 hours prior to otherwise identical labeling with ^3 H-thymidine (open symbols). Data is expressed as ^3 H-thymidine incorporated per cell to compensate for the reduced cell number in the wake of inhibitor treatment.
Inhibition of DNA synthesis was examined by semiautomated methods. SMC were plated at 1×10^4 cells/well in 96-well microtiter plates at least 24 hours prior to the assay. Agents were introduced into normal serum-containing growth media for 20 hours before the cells were pulsed with ^3 H-thymidine (1 μCi/ml) for 4 hours. Cells were collected with a cell harvester and the DNA-incorporated label determined by scintillation counting (Betaplate; Wallac, Inc., Gaithersburg, Md.) (n=6 per point).

[3] = system: cellular deoxyhypusyl hydroxylase; conditions: Hanauske-Abel et al. 1994; cited from earlier work

Structure (SMILES): N[C@@H](Cn1ccc(=O)c(O)c1)C(=O)O [L-Mimosine]
- inhibition of deoxyhypusyl hydroxylase activity [1]: inhibit deoxyhypusyl hydroxylase activity
- inhibition of secretion of procollagen type I (type I procollagen): potent inhibitor; also recorded: selectively suppressive effect
- inhibition of secretion of procollagen type III (type III procollagen): potent inhibitor; also recorded: selectively suppressive effect
- non-specific or toxic effects ([2]; FIGS. 6, 7): did not result from non-specific or toxic effects
- reversibility of cytostatic effect upon withdrawal ([2]; FIG. 7, listed as L-mimosine): non-toxic reversibility
- reversibility of cytostatic effect upon withdrawal ([2]; FIG. 7, listed as mimosine): fully reversible
- rebound effect on DNA synthesis ([2]; following inhibitor removal and additional 24-hour recovery): marked rebound effect
- inhibition of DNA synthesis ([2]; lesion-derived SMC, initial 24-hour treatment, FIG. 7): DNA synthesis was inhibited
- reversibility of suppressive effects (collagen secretion, onset of DNA synthesis) ([2]; upon removal of compound): reversible
- inhibition of cellular deoxyhypusyl hydroxylase activity [3]: block the cellular deoxyhypusyl hydroxylase activity
